The values below are quoted from earlier work in PMC7099596 (ACS Central Science, 2020).

pEC50: −log10 of the molar value.

In data set [1] the test system is SKBr-3 breast cancer cell line. The following applies: read-out: EC50 antiproliferative activity, SKBr-3, ref NCI ID: 122750.
The subject of data set [2] is MCF-7 breast cancer cell line. Conditions: read-out: EC50 antiproliferative activity, MCF-7, ref NCI ID: 122750.

For orientation: pEC50 means the EC50 on a negative log10 scale, so that one unit is a factor of ten. `COC1=C2C[C@@H](C)C[C@H](OC)[C@H](O)[C@@H](C)/C=C(\C)[C@H](OC(N)=O)[C@@H](OC)/C=C\C=C(/C)C(=O)NC(=CC1=O)C2=O` [geldanamycin]: the negative logarithm of the EC50 (pEC50) in data set [1] was 7.62; in data set [2], 7.70.
